The text below walks through data of patent US12128099B2 (priority 2018, dated 2024).

Structures are written as SMILES. Values joined by “and” are separate entries in the source; they are usually repeats but may differ in a detail not shown here. Equal values may be shown once. Read-outs that look alike come from different tables or passages of the source.

In series [1] the test system is OvCa-26. The series can be described thus: cells. The conditions noted are these: read-out: calculated IC50. Format: cell-based, human.
For series [2], the system named is OvCa-2a. Kind of series: cells. Format: cell-based, human. The conditions noted are these: read-out: calculated IC50.
The test system of series [3] is SKOV3. Kind of series: cells. Format: cell-based, human.
For series [4], the system named is ID8 disseminated tumor. Set-up: species or system mice. The conditions noted are these: mouse, in vivo.
For series [5], the system named is primary OC cells (OvCa-2a and OvCa-26). Format: cell-based, human.
Series [6] relates to THP-1 SAMD9 KD cells. Format: cell-based, human. The following applies: FIGS. 15A-15D, 16C.
For series [7], the system named is murine OC ID8 cells. Format: cell-based.
Series [8] concerns MYXV.
In series [9] the test system is OC patient ascites-associated CD14+ monocytes.

With `Nc1ccn([C@@H]2O[C@H](CO)[C@@H](O)C2(F)F)c(=O)n1` [gemcitabine], the IC50 in series [1] (Homo sapiens) is 14.6 µM; in series [2] (Homo sapiens), 960 µM; in [3] (Homo sapiens, SK-OV-3), 9.32 µM. This compound also displayed a median survival time in series [4] of 78 days. The “therapeutic benefit, single-agent treatment given late” value in series [4] was “did not lead to significant therapeutic benefit”. In addition, in series [5], the “growth inhibition, drug treatment alone” value was “did not observe significant growth inhibition”.
Turning to `Nc1nc2c(ncn2[C@@H]2O[C@@H]3COP(=O)(O)O[C@H]4[C@@H](O)[C@H](n5cnc6c(N)ncnc65)O[C@@H]4COP(=O)(O)O[C@@H]2[C@@H]3O)c(=O)[nH]1` [2′3′-cGAMP], in series [6], the “IFNβ / ISG mRNA in SAMD9 KD cells versus control cells” value is given as “comparably to control cells”.
With `N.N.[Cl][Pt][Cl]` [cisplatin], the IC50 in [1] is 11.4 µM; in series [2] it was 3.6 µM; in series [3] (read-out: IC50) it was 8.4 µM; in series [7], 2 µM. In addition, the Median survival in [4] is 113 days and 127 days. This compound also had a median survival time in series [4] of 90 days. In [4], the survival amounted to 40%. Also, the “growth inhibition, drug treatment alone” value in series [5] was “did not observe significant growth inhibition”. Also, the “MYXV DNA replication” value in series [8] is reported as “inhibits DNA replication of MYXV”.
Regarding `O=[N+]([O-])c1ccc2c(c1)S(=O)(=O)C=C2` [Stattic], in [9], the IL-8 level entry is “unchanged levels of IL-8”; the “cytokine secretion (IL-10, IL-6)” value was “suppressive effect in cytokine secretion”; the toxicity result was “did not cause noticeable toxicity”.

A word on the IC50: it is the midpoint of a concentration-inhibition curve.
